# Experimental data taken from US6723897B2, “Methods for controlling gibberellin levels” (Monsanto Technology, LLC, priority 1998, dated 2004).
# Assays:
# [1] = system: constitutively GA-deficient transgenic dwarf soybean line 719; assay: Field trial of seed coating application rates, GA-deficient soybean; assay type: in vivo, Glycine max; details: seed coating
# Description: (§1) GA3, GA3-3-acetate, GA5, GA9, and GA12 are evaluated in further field trials. […] The objectives of these tests are: 1) to determine if seed coatings, as compared to imbibition, of GA compounds facilitate rescue of constitutively GA-deficient transgenic dwarf soybeans (transgenic lines 719−2 plus 719+17) without causing elongation of wild-type soybeans (line A4922), and 2) to determine the seed treatment rate ranges for each of the selected GA compounds that would provide rescue of constitutively GA-deficient transgenic dwarf soybeans (transgenic lines 719−2 plus 719+17) without causing elongation of wild-type soybeans (line A4922).
# (§2) Seeds are treated with GA3, GA5, GA9, GA12, and GA3-3-acetate at rates of 0, 0.1, 1, 10, and 100 μg/seed. These GA compounds are applied to the seeds using a Hege 11 seed treater (Hans-Ulrich Hege GmbH & Co., Waldenburg, Germany); 100% acetone is used as the carrier solvent. The amount of liquid introduced into the seed treater is six fluid ounces/100 lbs seed rate. In addition, GA12 is tested at 50 μg/seed. The untreated control (UTC) consisted of dry, untreated seeds. Seeds of constitutively GA-deficient transgenic dwarf soybean line 719 and wild-type A4922 are sown in both light and heavy soil. The planting depth is 0.5 to 1 inch (1.27 to 2.54 cm); watering is via drip irrigation. The experiment is carried out in three repetitions, using 25 seeds/plot (one five foot (152.4 cm) long row) for line 719, and 75 seeds/plot (two eight foot (243.8 cm) rows) for line A4922. Observations included total emergence, number of dwarfs not rescued, uniformity in plant height, average plant height, visual notes, and digital photos.
# (§3) In all the experiments reported in Tables 17-24, treatments are replicated three times in a randomized block design. Data are analyzed using LSD (least significant difference) 0.05 probability using the PRM 5.0 Statistical Analysis Program (SAS Institute, North Carolina).
# [2] = system: wild-type soybean line A3237; assay: Experiment II second greenhouse test, seed imbibition, wild-type soybean; assay type: in vivo, Glycine max; details: 0.25 mg/ml; seeds imbibed 6 hours
# Description: (The compounds are tested in Experiment I at only one concentration, i.e., 0.25 mg/ml). Test tubes contained […] of ethanol solution per tube. Final volumes are made up to 30 ml with deionized water. After shaking, the treatment solutions (15 ml each) are transferred to each of two 50 ml test tubes. […] Twenty seeds are used in each treatment. Dry seed, ethanol/water-imbibed seed (1% ethanol in water, v/v), and water-imbibed seeds are included as controls. Seeds are imbibed for 6 hours in the test solutions, then planted in bread pans containing Metromix 350 (The Scotts Company, Marysville, Ohio), and covered with 0.5″ Metro-mix. Covered pans are transferred to the greenhouse and subirrigated. Illumination is at a light intensity of 300-400 μmolm^−2s^−1 photosynthetic photon flux; 16 hours light/8 hours dark. Subsequent waterings are also through sub-irrigation until the test is terminated three weeks later. Observations included the number of dwarf, intermediate, and tall plants; plant height; uniformity of rescue; and any visual effects. Digital photographs are also taken.
# [3] = system: non-transgenic soybean line A4922; assay: Field trial of seed coatings under soil compaction / different soils, wild-type soybean; assay type: in vivo, Glycine max; details: for Count (emergence) / Height (total plant height): A4922
# Description: The second trial (data reported in Tables 22-24) tested the precursors under conditions of soil compaction.
# As noted above, the second trial tested the noted precursors under conditions of soil compaction. These experiments are performed in the same manner as in the first trial, except that the soil is compacted with an all-terrain vehicle.
# “Height” equals total plant height in cm.
# [4] = system: wild-type soybean line A4922; assay: Field trial of seed coating application rates, wild-type soybean
# Description: as §1, §2, §3
# [5] = Heavy soil - Loose, target rate 0.5 μg/seed, Table 23
# [6] = Heavy soil - Loose, target rate 4.0 μg/seed, Table 23
# [7] = Heavy soil - Loose, target rate 8.0 μg/seed, Table 23
# [8] = Heavy soil - Loose, target rate 16.0 μg/seed, Table 23
# [9] = Heavy soil - compacted, target rate 0.5 μg/seed, Table 23
# [10] = Heavy soil - compacted, target rate 4.0 μg/seed, Table 23
# [11] = Heavy soil - compacted, target rate 8.0 μg/seed, Table 23
# [12] = Heavy soil - compacted, target rate 16.0 μg/seed, Table 23
# [13] = Heavy soil - loose, target rate 0.5 μg/seed, Table 22
# [14] = Heavy soil - loose, target rate 2.0 μg/seed, Table 22
# [15] = Light soil - Compacted, target rate 0.5 μg/seed, Table 22
# [16] = Light soil - Compacted, target rate 2.0 μg/seed, Table 22
# [17] = Light soil - Loose, target rate 0.5 μg/seed, Table 24
# [18] = Light soil - Loose, target rate 2.0 μg/seed, Table 24
# [19] = Light soil - Loose, target rate 4.0 μg/seed, Table 24
# [20] = Light soil - compacted, target rate 0.5 μg/seed, Table 24
# [21] = Light soil - compacted, target rate 2.0 μg/seed, Table 24
# [22] = Light soil - compacted, target rate 4.0 μg/seed, Table 24
structure (smiles),measurement,setting,value
"C=C1C[C@]23C[C@@]1(O)CC[C@H]2[C@@]12C=C[C@H](O)[C@@](C)(C(=O)O1)[C@H]2[C@@H]3C(=O)O [GA3, gibberellic acid]","719 Height, cm, Heavy soil",[1]; 0.1 μg compound per seed,5.7 cd cm
same,"719 Height, cm, Light soil",[1]; 0.1 μg compound per seed,5.7 ef cm
same,"No. 719 Emerged, Heavy soil",[1]; 0.1 μg compound per seed,19.7 a-d
same,"No. 719 Emerged, Light soil",[1]; 0.1 μg compound per seed,21.3 abc
same,"No. 719 Not Rescued, Heavy soil",[1]; 0.1 μg compound per seed,0 f
same,"No. 719 Not Rescued, Light soil",[1]; 0.1 μg compound per seed,1
same,"719 Height, cm, Heavy soil",[1]; 1 μg compound per seed,5.3 cde cm
same,"719 Height, cm, Light soil",[1]; 1 μg compound per seed,5.7 ef cm
same,"No. 719 Emerged, Heavy soil",[1]; 1 μg compound per seed,17.3 b-e
same,"No. 719 Emerged, Light soil",[1]; 1 μg compound per seed,20.7 abc
same,"No. 719 Not Rescued, Heavy soil",[1]; 1 μg compound per seed,0.3 ef
same,"No. 719 Not Rescued, Light soil",[1]; 1 μg compound per seed,0
same,"719 Height, cm, Heavy soil",[1]; 10 μg compound per seed,10.3 a cm
same,"719 Height, cm, Light soil",[1]; 10 μg compound per seed,11.7 bc cm
same,"No. 719 Emerged, Heavy soil",[1]; 10 μg compound per seed,18.3 a-e
same,"No. 719 Emerged, Light soil",[1]; 10 μg compound per seed,21.0 abc
same,"No. 719 Not Rescued, Heavy soil",[1]; 10 μg compound per seed,0 f
same,"No. 719 Not Rescued, Light soil",[1]; 10 μg compound per seed,0
same,"719 Height, cm, Heavy soil",[1]; 100 μg compound per seed,9.3 ab cm
same,"719 Height, cm, Light soil",[1]; 100 μg compound per seed,13.7 a cm
same,"No. 719 Emerged, Heavy soil",[1]; 100 μg compound per seed,8.0 f
same,"No. 719 Emerged, Light soil",[1]; 100 μg compound per seed,16.7 cd
same,"No. 719 Not Rescued, Heavy soil",[1]; 100 μg compound per seed,0 f
same,"No. 719 Not Rescued, Light soil",[1]; 100 μg compound per seed,0
same,Significant Visual Observations on Line A3237,[2],Poor emergence
same,Count (emergence),[3]; [5],25.0 cde
same,Height (total plant height),[3]; [5],5.0 efg cm
same,Count (emergence),[3]; [6],24.7 de
same,Height (total plant height),[3]; [6],8.7 a cm
same,Count (emergence),[3]; [7],29.3 a-d
same,Height (total plant height),[3]; [7],6.3 cde cm
same,Count (emergence),[3]; [8],24.7 dc
same,Height (total plant height),[3]; [8],7.0 bc cm
same,Count (emergence),[3]; [9],8.3 cd
same,Height (total plant height),[3]; [9],4.3 b-e cm
same,Count (emergence),[3]; [10],4.0 de
same,Height (total plant height),[3]; [10],8.0 a cm
same,Count (emergence),[3]; [11],9.7 a-d
same,Height (total plant height),[3]; [11],6.0 bc cm
same,Count (emergence),[3]; [12],6.3 cde
same,Height (total plant height),[3]; [12],6.7 ab cm
same,Count (emergence),[3]; [13],25 cde
same,Height (total plant height),[3]; [13],5.0 efg cm
same,Count (emergence),[3]; [14],21 ef
same,Height (total plant height),[3]; [14],6.7 bcd cm
same,Count (emergence),[3]; [15],28 bcd
same,Height (total plant height),[3]; [15],5.7 def cm
same,Count (emergence),[3]; [16],13 ef
same,Height (total plant height),[3]; [16],8.0 c cm
same,Count (emergence),[3]; [17],43.0 abc
same,Height (total plant height),[3]; [17],7.0 ef cm
same,Count (emergence),[3]; [18],38.3 bc
same,Height (total plant height),[3]; [18],9.0 cd cm
same,Count (emergence),[3]; [19],37.7 c
same,Height (total plant height),[3]; [19],10.3 b cm
same,Count (emergence),[3]; [20],28.3 bcd
same,Height (total plant height),[3]; [20],5.7 def cm
same,Count (emergence),[3]; [21],12.7 ef
same,Height (total plant height),[3]; [21],8.0 c cm
same,Count (emergence),[3]; [22],7.7 f
same,Height (total plant height),[3]; [22],10.3 b cm
same,emergence at approximately equivalent biological response (height),"[3]; compacted soil, FIG. 40",68%
same,"A4922 Height, cm, Heavy soil",[4]; 0.1 μg compound per seed,5.7 efg cm
same,"A4922 Height, cm, Light soil",[4]; 0.1 μg compound per seed,6.7 fg·cm
same,"No. A4922 Emerged, Heavy soil",[4]; 0.1 μg compound per seed,28.0 c-g
same,"No. A4922 Emerged, Light soil",[4]; 0.1 μg compound per seed,42.7 e-i
same,"A4922 Height, cm, Heavy soil",[4]; 1 μg compound per seed,6.0 efg cm
same,"A4922 Height, cm, Light soil",[4]; 1 μg compound per seed,8.3 ef cm
same,"No. A4922 Emerged, Heavy soil",[4]; 1 μg compound per seed,16.7 g
same,"No. A4922 Emerged, Light soil",[4]; 1 μg compound per seed,36.3 i
same,"A4922 Height, cm, Heavy soil",[4]; 10 μg compound per seed,10.3 cm·days
same,"A4922 Height, cm, Light soil",[4]; 10 μg compound per seed,12.7 cm·days
same,"No. A4922 Emerged, Heavy soil",[4]; 10 μg compound per seed,28.7 c-g
same,"No. A4922 Emerged, Light soil",[4]; 10 μg compound per seed,39.7 f-j
same,"A4922 Height, cm, Heavy soil",[4]; 100 μg compound per seed,21.0 a cm
same,"A4922 Height, cm, Light soil",[4]; 100 μg compound per seed,27.0 ab cm
same,"No. A4922 Emerged, Heavy soil",[4]; 100 μg compound per seed,19.7 efg
same,"No. A4922 Emerged, Light soil",[4]; 100 μg compound per seed,38.0 hi
